In US20250122144A1, “Compound and Molded Body Comprising Same” (LG Chem, Ltd., priority 2022, published 2025):

Assay: Evaluation of heat resistance by thermogravimetric analyzer (TGA), primary thermal decomposition temperature
Format: physicochemical
Details: N2 atmospheric environment, FIG. 9
Experimental: In this experiment, the evaluation of heat resistance was defined as an extrapolated intersection point (primary thermal decomposition temperature) between a starting mass reference line and the tangent line of the maximum slope point in the first mass reduction section of a mass loss curve measured by a thermogravimetric analyzer (TGA) in an N2 atmospheric environment.
In the present disclosure, it is determined that when the primary thermal decomposition temperature of the compound has a value higher than the primary thermal decomposition temperature of the material before anion substitution, the heat resistance has increased.

| Compound | Td (thermal decomposition temperature) | heat resistance compared with the material before anion substitution |
| --- | --- | --- |
| C=C(C)C(=O)OCC[N+](C)(C)CCCCCCCCCC.[Br-] [Comparative Example 4-1] | about 230 °C | – |
| C=C(C)C(=O)OCC[N+](C)(C)CCCCCCCCCC.O=S(=O)([O-])O [Example 4-1] | – | heat resistance is improved |
